In ChEMBL document CHEMBL4732096, “Design, synthesis and evaluation of calix[4]arene-based carbonyl amide derivatives with antitumor activities” (Eur J Med Chem, 2021):
The source made the active and inactive calls. The calls are words filed in the database; no cut-off is given here.

What was measured:
[1] = tested on: MDA-MB-231; experiment: Induction of apoptosis in human MDA-MB-231 cells assessed as late apoptotic cells at 2 uM measured after 48 hrs by Annexin V-FITC/propidium iodide staining based flow cytometry (reference value: 4.5 %); format: functional
[2] = tested on: MDA-MB-231; experiment: Induction of apoptosis in human MDA-MB-231 cells assessed as increase in ratio of Bax/Bcl-2 at 0.4 to 10 uM measured after 48 hrs by Western blot analysis; format: functional, cell-based; conditions: dose 0.4-10 µM
[3] = Cytotoxicity against HUVEC cells assessed as inhibition of cell growth at 10 uM measured after 72 hrs by MTT assay; format: cell-based; conditions: human
[4] = tested on: MDA-MB-231; experiment: Induction of apoptosis in human MDA-MB-231 cells assessed as decrease in Bcl-2 expression at 0.4 to 10 uM measured after 48 hrs by Western blot analysis; format: functional, cell-based; conditions: dose 0.4-10 µM
[5] = tested on: MDA-MB-231; experiment: Antimigratory activity in human MDA-MB-231 cells assessed as cell migration at 8 uM measured after 48 hrs by wound healing assay (reference value: 67.4 %); format: functional
[6] = tested on: MDA-MB-231; experiment: Induction of morphological changes in human MDA-MB-231 cells assessed as cell shrinkage at 10 to 100 uM by optical inverted microscopic analysis; format: functional, cell-based; conditions: dose 10-100 µM
[7] = tested on: MDA-MB-231; experiment: Induction of apoptosis in human MDA-MB-231 cells assessed as necrotic cells at 0.2 uM measured after 48 hrs by Annexin V-FITC/propidium iodide staining based flow cytometry (reference value: 0.36 %); format: functional
[8] = tested on: MDA-MB-231; experiment: Potency index, ratio of IC50 of CLX-4 to IC50 of compound for antiproliferative activity against human MDA-MB-231 cells assessed as inhibition of cell growth measured after 72 hrs by MTT assay; format: functional
[9] = tested on: MDA-MB-231; experiment: Antimigratory activity in human MDA-MB-231 cells assessed as cell migration at 2 uM measured after 48 hrs by wound healing assay (reference value: 67.4 %); format: functional
[10] = tested on: MDA-MB-231; experiment: Induction of apoptosis in human MDA-MB-231 cells assessed as increase in Bax expression at 0.4 to 10 uM measured after 48 hrs by Western blot analysis; format: functional, cell-based; conditions: dose 0.4-10 µM
[11] = tested on: MDA-MB-231; experiment: Induction of apoptosis in human MDA-MB-231 cells assessed as necrotic cells at 2 uM measured after 48 hrs by Annexin V-FITC/propidium iodide staining based flow cytometry (reference value: 0.36 %); format: functional
[12] = tested on: MDA-MB-231; experiment: Induction of apoptosis in human MDA-MB-231 cells assessed as early apoptotic cells at 20 uM measured after 48 hrs by Annexin V-FITC/propidium iodide staining based flow cytometry (reference value: 1.03 %); format: functional
[13] = tested on: MDA-MB-231; experiment: Induction of apoptosis in human MDA-MB-231 cells assessed as nuclear condensation at 0.2 to 20 uM measured after 48 hrs by Hoechst 33342 staining based fluorescence microscopic analysis; format: functional, cell-based; conditions: dose 0.2-20 µM
[14] = tested on: MDA-MB-231; experiment: Induction of apoptosis in human MDA-MB-231 cells assessed as increase in apoptotic bodies at 0.2 to 20 uM measured after 48 hrs by Hoechst 33342 staining based fluorescence microscopic analysis; format: functional, cell-based; conditions: dose 0.2-20 µM
[15] = tested on: MDA-MB-231; experiment: Induction of apoptosis in human MDA-MB-231 cells assessed as necrotic cells at 20 uM measured after 48 hrs by Annexin V-FITC/propidium iodide staining based flow cytometry (reference value: 0.36 %); format: functional
[16] = tested on: MDA-MB-231; experiment: Induction of apoptosis in human MDA-MB-231 cells assessed as early apoptotic cells at 0.2 uM measured after 48 hrs by Annexin V-FITC/propidium iodide staining based flow cytometry (reference value: 1.03 %); format: functional
[17] = tested on: HepG2; experiment: Antiproliferative activity against human HepG2 cells assessed as inhibition of cell growth at 10 uM measured after 72 hrs by MTT assay relative to control; format: functional
[18] = tested on: MDA-MB-231; experiment: Induction of apoptosis in human MDA-MB-231 cells assessed as increase in cleaved PARP level at 0.4 to 10 uM measured after 48 hrs by Western blot analysis; format: functional, cell-based; conditions: dose 0.4-10 µM
[19] = tested on: MDA-MB-231; experiment: Induction of apoptosis in human MDA-MB-231 cells assessed as late apoptotic cells at 20 uM measured after 48 hrs by Annexin V-FITC/propidium iodide staining based flow cytometry (reference value: 4.5 %); format: functional
[20] = tested on: MDA-MB-231; experiment: Induction of apoptosis in human MDA-MB-231 cells assessed as late apoptotic cells at 0.2 uM measured after 48 hrs by Annexin V-FITC/propidium iodide staining based flow cytometry (reference value: 4.5 %); format: functional
[21] = tested on: A549; experiment: Antiproliferative activity against human A549 cells assessed as inhibition of cell growth measured after 72 hrs by MTT assay; format: functional, cell-based; conditions: A549, 72 h
[22] = tested on: MDA-MB-231; experiment: Induction of apoptosis in human MDA-MB-231 cells assessed as viable cells at 20 uM measured after 48 hrs by Annexin V-FITC/propidium iodide staining based flow cytometry (reference value: 94.1 %); format: functional; conditions: read-out: Activity
[23] = tested on: MDA-MB-231; experiment: Induction of apoptosis in human MDA-MB-231 cells assessed as viable cells at 2 uM measured after 48 hrs by Annexin V-FITC/propidium iodide staining based flow cytometry (reference value: 94.1 %); format: functional; conditions: read-out: Activity
[24] = tested on: A549; experiment: Antiproliferative activity against human A549 cells assessed as inhibition of cell growth at 10 uM measured after 72 hrs by MTT assay relative to control; format: functional
[25] = tested on: A549; experiment: Potency index, ratio of IC50 of CLX-4 to IC50 of compound for antiproliferative activity against human A549 cells assessed as inhibition of cell growth measured after 72 hrs by MTT assay; format: functional
[26] = tested on: MDA-MB-231; experiment: Antimigratory activity in human MDA-MB-231 cells assessed as reduction in cell migration measured after 48 hrs by wound healing assay; format: functional, cell-based
[27] = tested on: MDA-MB-231; experiment: Antiproliferative activity against human MDA-MB-231 cells assessed as inhibition of cell growth at 10 uM measured after 72 hrs by MTT assay relative to control; format: functional
[28] = tested on: MDA-MB-231; experiment: Induction of apoptosis in human MDA-MB-231 cells assessed as early apoptotic cells at 2 uM measured after 48 hrs by Annexin V-FITC/propidium iodide staining based flow cytometry (reference value: 1.03 %); format: functional
[29] = tested on: MDA-MB-231; experiment: Induction of morphological changes in human MDA-MB-231 cells assessed as rounded cell morphology at 10 to 100 uM by optical inverted microscopic analysis; format: functional, cell-based; conditions: dose 10-100 µM
[30] = tested on: MDA-MB-231; experiment: Antimigratory activity in human MDA-MB-231 cells assessed as cell migration at 4 uM measured after 48 hrs by wound healing assay (reference value: 67.4 %); format: functional
[31] = tested on: MCF7; experiment: Antiproliferative activity against human MCF7 cells assessed as inhibition of cell growth at 10 uM measured after 72 hrs by MTT assay relative to control; format: functional
[32] = tested on: MDA-MB-231; experiment: Induction of apoptosis in human MDA-MB-231 cells assessed as viable cells at 0.2 uM measured after 48 hrs by Annexin V-FITC/propidium iodide staining based flow cytometry (reference value: 94.1 %); format: functional; conditions: read-out: Activity
[33] = tested on: HT-29; experiment: Antiproliferative activity against human HT-29 cells assessed as inhibition of cell growth at 10 uM measured after 72 hrs by MTT assay relative to control; format: functional
[34] = tested on: MDA-MB-231; experiment: Induction of apoptosis in human MDA-MB-231 cells assessed as increase in caspase-3 activation at 0.4 to 10 uM measured after 48 hrs by Western blot analysis; format: functional, cell-based; conditions: dose 0.4-10 µM
[35] = tested on: MDA-MB-231; experiment: Induction of apoptosis in human MDA-MB-231 cells assessed as nuclear rupture at 0.2 to 20 uM measured after 48 hrs by Hoechst 33342 staining based fluorescence microscopic analysis; format: functional, cell-based; conditions: dose 0.2-20 µM
[36] = tested on: MDA-MB-231; experiment: Induction of cell cycle arrest in human MDA-MB-231 cells assessed as decrease in CyclinD1 expression at 0.4 to 10 uM measured after 48 hrs by Western blot analysis; format: functional, cell-based; conditions: dose 0.4-10 µM
[37] = tested on: MDA-MB-231; experiment: Induction of morphological changes in human MDA-MB-231 cells assessed as shedding of cell morphology at 10 to 100 uM by optical inverted microscopic analysis; format: functional, cell-based; conditions: dose 10-100 µM
[38] = tested on: MDA-MB-231; experiment: Antiproliferative activity against human MDA-MB-231 cells assessed as inhibition of cell growth measured after 72 hrs by MTT assay; format: functional, cell-based; conditions: MDA-MB-231, 72 h
[39] = tested on: MDA-MB-231; experiment: Induction of cell cycle arrest in human MDA-MB-231 cells assessed as increase in accumulation in G0/G1 phase at 0.2 to 20 uM measured after 48 hrs by propidium iodide staining based flow cytometry; format: functional; conditions: dose 0.2-20 µM
[40] = tested on: MDA-MB-231; experiment: Induction of cell cycle arrest in human MDA-MB-231 cells assessed as decrease in CDK4 expression at 0.4 to 10 uM measured after 48 hrs by Western blot analysis; format: functional, cell-based; conditions: dose 0.4-10 µM
[41] = tested on: MDA-MB-231; experiment: Induction of apoptosis in human MDA-MB-231 cells assessed as increase in fluorescence intensity at 0.2 to 20 uM measured after 48 hrs by Hoechst 33342 staining based fluorescence microscopic analysis; format: functional, cell-based; conditions: dose 0.2-20 µM

With `CCC(Oc1c2cc(C(C)(C)C)cc1Cc1cc(C(C)(C)C)cc(c1O)Cc1cc(C(C)(C)C)cc(c1OC(CC)C(=O)N(CCO)CCO)Cc1cc(C(C)(C)C)cc(c1O)C2)C(=O)N(CCO)CCO` (stereo unspecified) the Activity [1] was 20.7%, the Activity [2] was “Active” and the inhibition at 72 h, 10 µM [3] was 9.6%. The Activity [4] was “Active”, the Activity [5] was 84% and the Activity [6] was “Active”. For the same molecule, the Activity [7] was 1.13%, the “Ratio IC50” value [8] was 6.8 and the Activity [9] was 76.9%. For the same molecule, the Activity [10] was “Active”, the Activity [11] was 0.34% and the Activity [12] was 19.2%. For the same molecule, the Activity [13] was “Active”, the Activity [14] was “Active” and the Activity [15] was 1.37%. For the same molecule, the Activity [16] was 12.3%, the inhibition at 10 µM [17] was 89.6% and the Activity [18] was “Active”. For the same molecule, the Activity [19] was 40.4%, the Activity [20] was 21.2% and the IC50 [21] was 1200 nM. It also gave a viability at 20 µM [22] of 39%, a viability at 2 µM [23] of 56.9% and an inhibition at 10 µM [24] of 90.7%. For the same molecule, the “Ratio IC50” value [25] was 3.2, the Activity [26] was “Dose-dependent effect” and the inhibition at 10 µM [27] was 88.2%. For the same molecule, the Activity [28] was 22.1%, the Activity [29] was “Active” and the Activity [30] was 79%. It also gave an inhibition at 10 µM [31] of 90.4%, a viability at 0.2 µM [32] of 65.5% and an inhibition at 10 µM [33] of 64.2%. For the same molecule, the Activity [34] was “Active”, the Activity [35] was “Active” and the Activity [36] was “Active”. The Activity [37] was “Active”, the IC50 [38] was 660 nM and the Activity [39] was “Active”. For the same molecule, the Activity [40] was “Active” and the Activity [41] was “Active”.
